Data as given in patent US20180360855A1, “THE FORMULATION COMPRISING PHOSPHOMYCINE AND ASCORBIC ACID FOR THE TREATMENT OF BACTERIAL URINARY SYSTEM INFECTIONS” (priority 2015, published 2018).

How the values were obtained:
[1] = pH of solutions of Phosphomycine Trometamol with and without ascorbic acid in water; assay type: physicochemical
susceptible bacteria = settings: cited from earlier work

Compound | pH in 50 ml water ([1]; 5.631 g Phosphomycine Trometamol (+ 1.0 g ascorbic acid) in 50 ml water) | pH in 100 ml water ([1]; 5.631 g Phosphomycine Trometamol (+ 1.0 g ascorbic acid) in 100 ml water) | pH in 150 ml water ([1]; 5.631 g Phosphomycine Trometamol (+ 1.0 g ascorbic acid) in 150 ml water) | efficiency in vitro depending on environmental conditions (susceptible bacteria; in the presence of Alkali pH, glycose, phosphate, and sodium chloride) | time in which efficiency on susceptible bacteria is shown (susceptible bacteria; in vitro studies) [min]
C[C@@H]1O[C@@H]1P(=O)(O)O [Phosphomycine Trometamol, Phosphomycine trometamol] | 3.608 | 3.743 | 3.824 |  | 
C[C@@H]1O[C@@H]1P(=O)(O)O [Phosphomycine] |  |  |  | reduced | 30
